Laboratory results taken from patent US10221163B2 (priority 2015, dated 2019).
Read-outs that look alike come from different tables or passages of the source.

Key:
IMP-1 = IMP-1 (Serratia marcescens, UniProt P52699); test: biochemical; type: biochemical; settings: fluorescence assay, CCF2-FA substrate, 2 pM enzyme, 2 hours at 25° C.; read-out: IMP-1 IC50
Procedure, shortened: (§1)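 Enzyme activity was measured by fluorescence using CCF2-FA, a cephalosporin-linked 7-hydroxycoumarin/fluorescein substrate, with inhibitor, metallo-β-lactamase and substrate incubated together for 2 hours at 25° C. IC50 came from a 4-parameter fit of inhibition versus log inhibitor concentration.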

NDM-1 = NDM-1 (Klebsiella pneumoniae, UniProt C7C422); test: biochemical; type: biochemical; settings: fluorescence assay, CCF2-FA substrate, 1 pM enzyme, 2 hours at 25° C.; read-out: NDM-1 IC50
Chain of NDM-1 (C7C422 whole entry, looked up, species assumed): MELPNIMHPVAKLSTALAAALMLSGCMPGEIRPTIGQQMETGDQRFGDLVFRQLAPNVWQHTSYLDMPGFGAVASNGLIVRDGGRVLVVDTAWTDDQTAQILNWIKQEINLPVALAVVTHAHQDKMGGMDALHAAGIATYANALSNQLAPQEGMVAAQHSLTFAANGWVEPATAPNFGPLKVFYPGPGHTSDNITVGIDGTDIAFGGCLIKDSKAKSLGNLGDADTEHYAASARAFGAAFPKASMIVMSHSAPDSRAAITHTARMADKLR
Procedure, shortened: as §1

VIM-1 = VIM-1 (Pseudomonas aeruginosa (strain ATCC 15692 / DSM 22644 / CIP 104116 / JCM 14847 / LMG 12228 / 1C / PRS 101 / PAO1), UniProt A0A0F7KYQ8); test: biochemical; settings: CCF2-FA substrate, 30 pM enzyme, 2 hours at 25° C.
Procedure, shortened: as §1

[1] = tested on: Escherichia coli expressing NDM-1 (CLB30005, CLB30016); type: cell-based; settings: NDM-1 strain, with imipenem 1 μg/ml, 95% inhibition of growth
Procedure, shortened: (§2)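 Clinical isolates (E. coli NDM-1, S. marcescens IMP-1, K. pneumoniae VIM-1) were diluted 1:100 from saline suspension into 1.1×CAMHB and exposed to test compound with imipenem at 1 μg/ml. Plates were incubated at 35° C for 22 hours to 24 hours, and growth was read by absorbance.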

[2] = tested on: Klebsiella pneumoniae expressing VIM-1 (IHMA599644); type: cell-based; settings: VIM-1 strain IHMA599644, with imipenem 1 μg/ml, 95% inhibition of growth
Procedure, shortened: as §2

[3] = tested on: Serratia marcescens expressing IMP-1 (CL5741); type: cell-based; settings: IMP-1 strain CL5741, with imipenem 1 μg/ml, 95% inhibition of growth
Procedure, shortened: as §2

[4] = tested on: Pseudomonas aeruginosa efflux+ (MB9798), IMP-1; type: cell-based; settings: concentration restoring susceptibility to imipenem at 2 μg/mL in the presence of a class A, C, D serine β-lactamase inhibitor closely related to relebactam
Procedure, shortened: (§3)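 Steps: add fixed imipenem and/or ceftazidime (usually CLSI breakpoint) and fixed AmpC-directed class A/C inhibitor to microbroth MIC wells; titrate MBL inhibitor; record concentration regaining susceptibility for each PAO1-derived strain; divide efflux+ by efflux− value.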

[5] = tested on: Pseudomonas aeruginosa efflux− (MB9799), IMP-1; type: cell-based; settings: concentration restoring susceptibility to imipenem at 2 μg/mL in the presence of a class A, C, D serine β-lactamase inhibitor closely related to relebactam
Procedure, shortened: as §3

[6] = tested on: Pseudomonas aeruginosa MB9798 vs MB9799; settings: ratio MITC95 PA_9798/MITC95 PA_9799
Procedure, shortened: as §3

[7] = fluorescence assay, read-out: VIM-1 IC50

Chain of IMP-1 (P52699 whole entry, looked up, species assumed): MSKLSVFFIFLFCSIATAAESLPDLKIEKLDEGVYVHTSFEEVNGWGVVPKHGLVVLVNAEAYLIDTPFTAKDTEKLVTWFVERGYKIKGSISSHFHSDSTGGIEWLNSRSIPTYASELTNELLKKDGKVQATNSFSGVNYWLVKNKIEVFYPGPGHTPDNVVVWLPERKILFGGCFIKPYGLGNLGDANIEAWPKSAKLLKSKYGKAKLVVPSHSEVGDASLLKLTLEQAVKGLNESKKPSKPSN

| Compound | IC50 (IMP-1) [nM] | IC50 (NDM-1) [nM] | IC50 (VIM-1; [7]) [nM] | Escherichia coli MITC95 [1] [µM] | Klebsiella pneumoniae MITC95 [2] [µM] | Serratia marcescens MITC95 [3] [µM] | P. aeruginosa expressing IMP-1, efflux + (MB9798) MITC95 [4] [µM] | P. aeruginosa expressing IMP-1, efflux − (MB9799) MITC95 [5] [µM] | Efflux ratio [6] | IC50 (VIM-1; VIM-1 IC50, fluorescence assay) [nM] |
| --- | --- | --- | --- | --- | --- | --- | --- | --- | --- | --- |
| NCCNC(=O)c1cccc(-c2ccc(S(=O)(=O)NCCN)c(S(N)(=O)=O)c2-c2nn[nH]n2)c1 [Example 334, N-(2-aminoethyl)-4′-(N-(2-aminoethyl)sulfamoyl)-3′-sulfamoyl-2′-(2H -tetrazol-5-yl)-[1,1′-biphenyl]-3-carboxamide] | 4.6 | 1.32 | 0.247 | 0.3906 | 0.7813 | 0.7813 | 1.563 | 0.7813 | 2.00 | – |
| NCCNS(=O)(=O)c1ccc(-c2cccc3[nH]c([C@H](N)CN)nc23)c(-c2nn[nH]n2)c1S(N)(=O)=O [Example 335, (R)—N1-(2-aminoethyl)-4-(2-(1,2-diaminoethyl)-1H-benzo[d]imidazole-4-yl)-3-(2H-tetrazol-5-yl)benzene-1,2-disulfonamide] | 4.78 | 0.459 | 0.287 | 1.563 | 3.125 | 3.125 | 3.125 | 1.563 | 2.00 | – |
| NCCNS(=O)(=O)c1ccc(-c2cccc3[nH]c([C@@H](N)CN)nc23)c(-c2nn[nH]n2)c1S(N)(=O)=O [Example 336, (S)—N1-(2-aminoethyl)-4-(2-(1,2-diaminoethyl)-1H-benzo[d]imidazol-4-yl)-3-(2H-tetrazol-5-yl)benzene-1,2-disulfonamide] | 2.9 | 0.325 | 0.233 | 1.563 | 3.125 | 3.125 | 3.125 | 1.563 | 2.00 | – |
| NCCNS(=O)(=O)c1ccc(-c2cccc3[nH]c(CCN)nc23)c(-c2nn[nH]n2)c1S(N)(=O)=O [Example 337, N1-(2-aminoethyl)-4-(2-(2-aminoethyl)-1H-benzo[d]imidazol-4-yl)-3-(2H-tetrazol-5-yl)benzene-1,2-disulfonamide] | 2.23 | 0.208 | 0.2 | 0.7813 | 0.7813 | 0.7813 | 0.7813 | 0.3906 | 2.00 | – |
| NCCNS(=O)(=O)c1ccc(C2=CC(N)CCC2)c(-c2nn[nH]n2)c1S(N)(=O)=O (stereo not drawn) [Example 338, 5′-Amino-N4-(2-aminoethyl)-2-(2H-tetrazol-5-yl)-2′,3′,4′,5′-tetrahydro-[1,1′-biphenyl]-3,4-disulfonamide] | 91 | 37.6 | 6.42 | 1.563 | 1.563 | 1.563 | 6.25 | 1.563 | 4.00 | – |
| N[C@H]1C=C(c2ccc(S(=O)(=O)N[C@@H]3CCNC3)c(S(N)(=O)=O)c2-c2nn[nH]n2)CCC1 [Example 339, (R)-5′-amino-N4-((R)-pyrrolidin-3-yl)-2-(2H-tetrazol-5-yl)-2′,3′,4′,5′-tetrahydro-[1,1′-biphenyl]-3,4-disulfonamide] | 34.1 | 11.9 | – | 0.7813 | 0.7813 | 1.563 | 6.25 | 1.563 | 4.00 | 2.1 |
| N[C@@H]1C=C(c2ccc(S(=O)(=O)N[C@@H]3CCNC3)c(S(N)(=O)=O)c2-c2nn[nH]n2)CCC1 [Example 340, (S)-5′-amino-N4-((R)-pyrrolidin-3-yl)-2-(2H-tetrazol-5-yl)-2′,3′,4′,5′-tetrahydro-[1,1′-biphenyl]-3,4-disulfonamide] | 46.7 | 6.29 | – | 0.3906 | 0.7813 | 1.563 | 6.25 | 1.563 | 4.00 | 2.89 |
| NCCCNC(=O)c1cccc(-c2ccc(S(=O)(=O)NCCN)c(S(N)(=O)=O)c2-c2nn[nH]n2)c1 [Example 341, 4′-(N-(2-aminoethyl)sulfamoyl)-N-(3-aminopropyl)-3′-sulfamoyl-2′-(2H-tetrazol-5-yl)-[1,1′-biphenyl]-3-carboxamide] | 4.13 | 1.71 | 0.474 | 0.7813 | 3.125 | 1.563 | 1.563 | 0.7813 | 2.00 | – |
| NCCNS(=O)(=O)c1ccc(C2CCC[C@H](N)C2)c(-c2nn[nH]n2)c1S(N)(=O)=O (stereo partly drawn) [Example 342, 4-((3S)-3-aminocyclohexyl)-N1-(2-aminoethyl)-3-(2H-tetrazol-5-yl)benzene-1,2-disulfonamide] | 88.7 | 32.7 | – | 1.563 | 1.563 | 3.125 | 25 | 6.25 | 4.00 | 5.31 |
| NCCNS(=O)(=O)c1ccc(-c2cccc3[nH]c(CN)nc23)c(-c2nn[nH]n2)c1S(N)(=O)=O [Example 343] | 1.37 | 0.195 | 0.207 | 0.7813 | 0.7813 | 0.7813 | 0.7813 | 0.7813 | 1.00 | – |
| NCCNS(=O)(=O)c1ccc(-c2cccc3sc(CN)nc23)c(-c2nn[nH]n2)c1S(N)(=O)=O [Example 345, N^1-(2-aminoethyl)-4-(2-(aminomethyl)benzo[d]thiazol-4-yl)-3-(2H -tetrazol-5-yl)benzene-1,2-disulfonamide] | 0.676 | 0.193 | 0.129 | 0.5859 | 0.7813 | 0.7813 | 0.7813 | 0.7813 | 1.00 | – |
| NCCNS(=O)(=O)c1ccc(-c2cccc(C(=O)NC[C@H](O)CN)c2)c(-c2nn[nH]n2)c1S(N)(=O)=O [Example 346] | 3.65 | 1.49 | – | 1.563 | 1.563 | 1.563 | 1.563 | 0.7813 | 2.00 | 0.467 |
| NCCNS(=O)(=O)c1ccc(-c2ccc3ncn(CCN)c3c2)c(-c2nn[nH]n2)c1S(N)(=O)=O [Example 348, N^1-(2-aminoethyl)-4-(1-(2-aminoethyl)-1H-benzo[d]imidazol-6-yl)-3-(2H-tetrazol-5-yl)benzene-1,2-disulfonamide] | 3.33 | 1.47 | 0.536 | 1.563 | 1.563 | 1.563 | 3.125 | 0.7813 | 4.00 | – |
